# Columns and labels:
# [1] = tested on: ddY mice; assay: Acute toxicity test; format: in vivo; details: oral, 6 male ddY mice, observed for 3 days
# Description: Five-week-old male ddY mice were used in groups of 6. […]
# [2] = tested on: Wistar rats; assay: Anticonflict test (water drinking behavior under electroshock); format: in vivo; details: oral; for Relieving rate of anxiety: one hour before experiment, male Wistar rats; for anxiolytic effect (in words): dose of 1.0 mg/kg
# Experimental: Wistar rats (males weighing 140 to 160 g) were used for experiment in groups of 11 to 14.
# Compound 1'a-1, 1'a-5, 1'b-1, 1'''-8, 1'''-9, the above comparison compound, diazepam or buspirone was suspended in a 0.5 % sodium carboxymethyl cellulose solution, and the suspension was orally given to the animal in a volume of 5 ml/kg one hour before the start of experiment.
# With reference to a method described in "Process in Anxiolytics and Antidepressants," edited by Showa Ueki and Tatsuo Furukawa, Ishiyaku Shuppansha, 56∼ 59 (1981), the agents were tested using experimental boxes having grid floor and a metal drinking tube in the floor. No water was supplied to the rats for 48 hours before the experiment. Upon lapse of first 24 hours, each group of rats were placed into the experimental box, permitted access to water for 30 seconds and caused to recognize the metal drinking tube. Upon lapse of further 24 hours with access to water prevented, the rats were placed into the box again and permitted access to water on condition that an electric current was passed between the metal drinking tube and the grid to give an electroshock for every 20 times of water drinking behavior to measure the frequency of water drinking behavior for 3 minutes. Anxiolytic effect was evaluated as relieving rate of anxiety as calculated by the following equation. Relieving rate of anxiety = (C-B)/(A-B) × 100 [formula] • A: Frequency of water drinking behavior of a control group without an electroshock and no anxiety (frequency under no punishment) • B: Frequency of water drinking behavior of a group with an electroshock and anxiety (under punishment) and having been administerd a solvent containing no test compound (frequency under solvent-control group) • C: Frequency of water drinking behavior of a group having been administered a test compound and relieved anxiety (frequency under test compound-administered group) Table 7
# [3] = tested on: ddY mice; details: mouse, in vivo, po, 300 mg/kg
# Experimental: (§1) Compound 1'a-1, the comparison compound, diazepam or buspirone was suspended in a 0.5 % sodium carboxymethyl cellulose solution, and the suspension was orally administered to 3- to 4-week-old male ddY mice (in groups of 5) in a volume of 10 ml/kg one hour before the start of experiment.
# The test was conducted with reference to a method described in "Evaluation of Medicinal Efficacies (1), Pharmacological Test Method (I ), Basic Lectures on Development of Pharmaceuticals," 50∼ 54(1971). More specifically, the group of mice were given the test drug and thereafter measured the amount of spontaneous locomotor activity for 10 minutes per mouse using Animex MK-110 (Muromachi Kikai Co., Ltd.).
# [4] = tested on: ddY mice; assay: Anticonvulsant effect (pentylenetetrazol-induced convulsion method); format: in vivo; details: for anticonvulsant effect: dose of 300 mg/kg, oral, male ddY mice; for ED50: Mus musculus, po, 1 h, read-out: ED50 (anticonvulsant effect)
# Experimental: (§2) Compound 1'a-1, the comparison compound, diazepam or buspirone was suspended in a 0.5 % sodium carboxymethyl cellulose solution, and the suspension was orally administered to 3- to 4-week-old male ddY mice (in groups of 6) in a volume of 10 ml/kg one hour before the start of experiment.
# The test was conducted with reference to a method described in "Evaluation of Medicinal Efficacies (1), Pharmacological Test Method (I), Basic Lectures on Development of Pharmaceuticals," 167∼ 172(1971).
# [5] = tested on: ddY mice; details: mouse, in vivo, po, 300 mg/kg; remark: listed apart in the source
# Experimental: as §2
# The test was conducted with reference to a method described in Japan. J. Pharmacol., 49, 337∼ 349(1989). More specifically, the group of mice were intraperitoneally given 25 % ethanol at a dose of 20 ml/kg and checked for the time interval between loss and recovery of the righting reflex.
# [6] = tested on: ddY mice; details: mouse, in vivo, po, 300 mg/kg; remark: listed apart in the source
# Experimental: as §1
# With reference to a method described in Japan. J. Pharmacol., 49. 337∼ 349(1989), the foreleg of the mouse was hung on a horizontal wire, having a diameter of 1.2 mm and fixed at a level of 30 cm, three times consecutively. […] Thus, ED50 was determined for evaluation.
Structure (SMILES),Number of death ([1]; dose 2000 mg/kg),Number of death ([1]; dose 3000 mg/kg),Relieving rate of anxiety ([2]; dose 0.01 mg/kg) [%],Relieving rate of anxiety ([2]; dose 0.1 mg/kg) [%],Relieving rate of anxiety ([2]; dose 1.0 mg/kg) [%],sedative effect [3],anticonvulsant effect [4],ethanol enhancing effect [5],muscle relaxant effect [6],anxiolytic effect (in words) [2],ED50 [4] [mg/kg],decreased anxiety ([2]; doses of 0.01 to 0.1 mg/kg)
"COc1ccc(C(=O)N2C(=O)CC[C@H]3[C@H](O)CC[C@H]32)cc1 (racemic) [Compound 1'a-1, (1RS, 6RS, 7RS)-7-hydroxy-2-(4-methoxybenzoyl)-2-azabicyclo-[4.3.0]nonan-3-one]",0,2,93,86,76,no sedative effect,no anticonvulsant effect,no ethanol enhancing effect,no muscle relaxant effect,,,
O=C1CC2(CCCC2)CC(=O)N1CCCCN1CCN(c2ncccn2)CC1 [Buspirone],,,,,2,,,,,almost ineffective,≥ 300,
"O=C1CC2CCCCC2N1 (stereo not shown) [Comparison Compound, 2-azabicyclo[3.4.0]nonane-3-one]",1,5,43,44,46,no sedative effect,no anticonvulsant effect,no ethanol enhancing effect,no muscle relaxant effect,,,up to 50%
CN1C(=O)CN=C(c2ccccc2)c2cc(Cl)ccc21 [Diazepam],,,,,-3,,,,,almost ineffective,0.35,
